# Assay results reported in patent publication US10556926B2, “Synthetic artificial peptides with antimicrobial effect” (priority 2014, dated 2020).
# No end group written: not given here.
# Tests used:
# E. coli ML-35p [1] = experiment: Kinetics of permeabilization of the outer bacteria membrane (nitrocefin); type: cell-based, Escherichia coli
# Method: (§1) The ability of the antimicrobial peptides for the respective permeabilization of the outer and inner bacteria membrane was tested by way of example on E. coli ML-35p (made available by Dr. R. E. Lehrer, Center for Health Sciences, Los Angeles, Calif., USA). The peptides were incubated in serial dilution with E. coli ML-35p and the time-dependent release of cell-internal components was measured in a slightly modified protocol according to Ericsson et al. (2002). For this purpose, the bacteria were cultured in Luria-Bertani (LB) medium with 100 μg/ml ampicillin (Fluka, Taufkirchen, Germany) until reaching an optical density of 0.4 at 600 nm wavelength. Then, the cells were washed three times by centrifugation at 4000 g for 1 min and subsequent up-take in 10 mM HEPES buffer pH 7.2. Finally, the cells were diluted to an optical density of 0.3 at 600 nm wavelength. To measure the permeabilization of the outer membrane, nitrocefin (Merck, Darmstadt, Germany) was diluted in HEPES buffer to a concentration of 60 μg/ml. The antimicrobial peptides were diluted in HEPES buffer to an end concentration of 12 μM, 24 μM, 48 μM and 96 μM end concentration. In the next step, 50 μl of nitrocefin were admixed with 50 μl of antimicrobial peptide and 50 μl of bacteria suspension such that an end concentration of 20 μg/ml of nitrocefin, 4 μM to 32 μM of antimicrobial peptide and bacteria with an optical density of 0.1 to 600 nm were present. The samples were mixed and the absorption at 500 nm wavelength was measured directly over a period of at least 90 min at 37° C. with regular shaking in a FLUOstar omega Microplate Reader (BMG Labtech, Ortenberg, Germany). The investigation of the permeabilization of the inner membrane was carried out in the same way except that instead of the nitrocefin accordingly 0-nitrophenyl-beta-D-galactoside (ONPG, Sigma-Aldrich) in an end concentration of 100 μg/ml was used and the absorption change was determined at a wavelength of 420 nm. The control used was samples without antimicrobial peptide, the positive control used for the membrane permeabilization was polymyxin B (Sigma-Aldrich) in an end concentration of 5 μM. For the data evaluation, firstly the measurement values of the corresponding negative controls were deducted from the measurement values of the samples, and the difference was then divided by the corresponding measurement values of the permeabilization control. Then, a graphical evaluation was carried out, the calculated values being plotted against the peptide concentration and being fitted with the help of the Origin Pro 8.1 G Software (OriginLab) according to a sigmoidal model.
# (§2) As comparison parameter between the peptides, the times were ascertained from this at which 50% of the final signal level was reached. For this purpose, the equation with the percentage membrane permeabilization y, the time x in minutes, the lower plateau A1, the upper plateau A2, the point of inflection Log X0 and the Hill incline p
# (§3) [formula] was used. The calculation of the parameters A1, A2, Log X0 and p was performed by the program by reference to the compensating curve. Further resolution of equation 5.1 for the case y=50 then produced for x the desired time at which the half-maximum signal level was reached.
# E. coli ML-35p [2] = experiment: Kinetics of permeabilization of the inner bacteria membrane (ONPG); type: cell-based, Escherichia coli
# Method: as §1, with “model. As representative examples, FIGS. 4 and 5 show the graphical evaluation for the kinetic investigation of the permeabilization of the outer E. coli bacteria membrane for the peptides N4 (FIG. 4) and O1 (FIG. 5).” for “model.”
# as §2, §3
Molecule,"Outer membrane, time to 50% of final signal (E. coli ML-35p [1]; 4 μM peptide)","Outer membrane, time to 50% of final signal (E. coli ML-35p [1]; 8 μM peptide)","Outer membrane, time to 50% of final signal (E. coli ML-35p [1]; 16 μM peptide)","Outer membrane, time to 50% of final signal (E. coli ML-35p [1]; 32 μM peptide)","Inner membrane, time to 50% of final signal (E. coli ML-35p [2]; 4 μM peptide)","Inner membrane, time to 50% of final signal (E. coli ML-35p [2]; 8 μM peptide)","Inner membrane, time to 50% of final signal (E. coli ML-35p [2]; 16 μM peptide)","Inner membrane, time to 50% of final signal (E. coli ML-35p [2]; 32 μM peptide)"
KRKRKILILIKRK-OH [N1],21 min,14 min,12 min,11 min,>90 min,>90 min,38 min,32 min
KILILIKRK-OH [N4],54 min,49 min,31 min,17 min,>90 min,>90 min,>90 min,>90 min
ILPWKWPWWPWRR [Indolicidin],>90 min,>90 min,>90 min,>90 min,>90 min,>90 min,>90 min,>90 min
"MPRRRRSSSRPVRRRRRPRVSRRRRRRGGRRR (Protamine) [protamine from salmon, grade IV, histone-free (Sigma-Aldrich)]",<1 min,<1 min,<1 min,<1 min,>90 min,>90 min,>90 min,>90 min
CC[C@H](C)[C@H](NC(=O)CN)C(=O)NCC(=O)N[C@@H](C)C(=O)N[C@H](C(=O)N[C@@H](CC(C)C)C(=O)N[C@@H](CCCCN)C(=O)N[C@H](C(=O)N[C@@H](CC(C)C)C(=O)N[C@H](C(=O)N[C@H](C(=O)NCC(=O)N[C@@H](CC(C)C)C(=O)N1CCC[C@H]1C(=O)N[C@@H](C)C(=O)N[C@@H](CC(C)C)C(=O)N[C@H](C(=O)N[C@@H](CO)C(=O)N[C@@H](Cc1c[nH]c2ccccc12)C(=O)N[C@H](C(=O)N[C@@H](CCCCN)C(=O)N[C@@H](CCCNC(=N)N)C(=O)N[C@@H](CCCCN)C(=O)N[C@@H](CCCNC(=N)N)C(=O)N[C@@H](CCC(N)=O)C(=O)N[C@@H](CCC(N)=O)C(N)=O)[C@@H](C)CC)[C@@H](C)CC)[C@@H](C)O)[C@@H](C)O)C(C)C)C(C)C [Melittin],,,,,18 min,12 min,9 min,6 min
